One experiment relates to COX-2. In words: PGE2 production in cell media as measure of COX-2 activity (GC/MS), A549 cells. The format is cell-based, human. The procedure: (§1) To stimulate COX-2 expression, A549 or RAW264.7 cells were treated overnight with 5 ng/mL IL-1β (A549) or 10 μg/mL LPS and 10 U/mL IFNγ (RAW264.7) in serum-free medium. When indicated, cells were pretreated with indomethacin, aldehyde scavengers (glucosamine, 3-MoSA, PPM or EtSA), or vehicle (ethanol for indomethacin, H2O for scavengers) for 45 min, and then given 20 μM arachidonic acid (AA) or DMSO vehicle for 1 h before lysing.
A sample of cellular media was taken just prior to lysis and centrifuged to remove any cellular debris. For PGE2 analysis, samples were spiked with 2 ng of [^2H7] PGE2 as an internal standard. Prostaglandins were isolated and derivatized for analysis by GC/MS, operating in negative ion chemical ionization (NICI) mode and monitoring selected ions as previously described. For the […] internal standard, m/z=528. To account for the deuterium-protium exchange at the position C12 of [^2H7] PGE2, the summation of the signals obtained at m/z=530, m/z=531 and m/z=532 was performed.

The subject of the next experiment is A549 cells. Kind of experiment: LG-lysyl adduct formation on histones in COX-2-stimulated, AA-treated A549 cells (LC/ESI/MS/MS). In kind it is cell-based, human. The procedure:
as §1
Cultured cells were lysed in hypotonic buffer (10 mM Tris/10 mM NaCl/3 mM MgCl2) containing 1 mM pyridoxamine and 100 μM indomethacin to prevent the artifactual formation of LGE2 during the lytic process. After letting cells swell on ice, membranes were disrupted by addition of Triton X-100 (0.5% final concentration) and vortexing. […] Protein concentration was determined using the method of Bradford. […]
Histone samples were prepared for mass spectrometry by addition of ammonium bicarbonate to 5 mM final concentration before digesting to single amino acids by protease step-digestion as previously described. […] Samples were evaluated by electrospray ionization (ESI) LC/MS/MS on a ThermoFisher TSQ Quantum triple quadrapole mass spectrometer in positive ion mode and quantitated by isotopic dilution as previously described, with the exception of a reduced flow rate of 0.1 mL/min.

The next experiment concerns RAW264.7 cells. In words: LG-lysyl adduct formation on histones in COX-2-stimulated, AA-treated RAW264.7 cells (LC/ESI/MS/MS). The settings on record: for LG adduct formation on histones (LG-lysyl lactam adduct): 500 μM scavenger pretreated 45 min, 20 μM AA 1 h, n=2. In kind it is cell-based, mouse. The procedure:
as §1
Cultured cells were lysed in hypotonic buffer (10 mM Tris/10 mM NaCl/3 mM MgCl2) containing 1 mM pyridoxamine and 100 μM indomethacin to prevent the artifactual formation of LGE2 during the lytic process. After letting cells swell on ice, membranes were disrupted by addition of Triton X-100 (0.5% final concentration) and vortexing. Nuclei were isolated by centrifugation for 10 min at 1000×g, and the resulting pellet washed with PBS. Histones were extracted in 0.4 N H2SO4, precipitated with trichloracetic acid, and washed with acetone. […] Histones were resolubilized in dilute NaOH, and pH neutralized with HCl. Protein concentration was determined using the method of Bradford. For tissue, a portion of frozen liver was homogenized in buffer containing 40 mM sodium citrate, and 1% Triton X-100 with 3 mM Trolox and 100 μM indomethacin. The supernatant was separated from settled debris, and nuclei were pelleted at 500×g and washed. Nuclear pellets were frequently transferred to fresh tubes to avoid contamination by floating lipid debris; any remaining was removed with a cotton swab. Histones were extracted as above. All centrifugation steps were carried out at 4° C.
Histone samples were prepared for mass spectrometry by addition of ammonium bicarbonate to 5 mM final concentration before digesting to single amino acids by protease step-digestion as previously described. In the case of immunoblots, proteins were digested directly off the nitrocellulose through incubation of the nitrocellulose strip in 30 μg/mL Pronase in ammonium bicarbonate buffer, and later addition of aminopeptidase. All samples were centrifuged at 2000×g for 10 min. after final digestion to remove precipitate, spiked with 0.2 ng ^13C-lysyl-lactam internal standard, and purified on prepared tC18 cartridges (Waters Corp., Milford, Mass.). Samples on tC18 cartridges were washed with water, then 30% methanol, before being eluted in 80% methanol and concentrated by evaporation. Samples were evaluated by electrospray ionization (ESI) LC/MS/MS on a ThermoFisher TSQ Quantum triple quadrapole mass spectrometer in positive ion mode and quantitated by isotopic dilution as previously described, with the exception of a reduced flow rate of 0.1 mL/min.

The next experiment has as its system histone H4. In words: Salt extraction of A549 nuclei, histone H4 solubility (Western blot). The format is cell-based, human. The settings on record: A549 cells, 500 μM EtSA 45 min prior to 20 μM AA; 0.6-1.2 M NaCl. The protocol:
60-80% confluent A549 cells were stimulated and treated with AA±500 μM EtSA before scraping cells in lysis media for nuclear isolation as above. After addition of Tritox X-100 and vortexing, 1.5 mL of each sample was aliquoted into an eppendorf and centrifuged to separate nuclei. Pellets were washed with PBS and all buffer removed. Nuclear pellets were resuspended in extraction buffer containing 0.6M, 0.9M, 1.2M or 1.5M NaCl (with 10 mM Tris, pH 7.5, 3 mM MgCl2, 0.5% NP-40, and protease inhibitor cocktail) and incubated 10 min on ice. Following this extraction period, the nuclei were centrifuged at 16,000×g to obtain the soluble fraction. This was sonicated, denatured at 95° C., and analyzed by SDS-PAGE and Western blotting, using Ponceau stain to visualize proteins and confirm equal loading, and anti-H4 antibody (Abcam, Cambridge, Mass.).

Take `CCc1ccc(O)c(CN)c1` [EtSA, 5-ethylsalicylamine]: the PGE2 production entry with COX-2 (highest concentration tested (1000 μM EtSA), 20 μM AA 1 h) is listed as “without affecting PGE2 production”; with COX-2 (lower doses of EtSA (data not shown)) it was “no effect on PGE2 production”. The LG-histone adduct formation result with A549 cells (stimulated A549 cells, 30, 300 or 1000 μM EtSA, 20 μM AA 1 h) is “inhibited LG-histone adduct formation”. For the same compound, the “LG adduct formation on histones (LG-lysyl lactam adduct)” value with RAW264.7 cells (RAW264.7 cells) is listed as “most effectively blocked adduct formation”. Besides, in the experiment on RAW264.7 cells (in comparison with salicylamine, pyridoxamine and their other analogues), the “protecting histones from modification by levuglandins, comparison with other scavengers” value is recorded as “most potent in protecting histones from modification by levuglandins”. The “histone H4 elution at lower salt concentrations (DNA-histone interaction)” value in the experiment on histone H4 is “reversed”.

Take `COc1ccc2c(c1)c(CC(=O)O)c(C)n2C(=O)c1ccc(Cl)cc1` [indomethacin, reference compound]: the LG-histone adduct formation result is “blocked” with A549 cells (A549 cells, 50 μM indomethacin preincubated 45 min, 20 μM AA) and “blocked” in the experiment on RAW264.7 cells (RAW264.7 cells, 50 μM indomethacin preincubated 45 min, 20 μM AA).

As to “pentylpyridoxamine [PPM, reference compound]”, in the experiment on RAW264.7 cells (RAW264.7 cells), the “LG adduct formation on histones (LG-lysyl lactam adduct)” value is on record as “partially inhibited histone adduct formation, but was much less potent than 5-ethylsalicylamine”.
